Results as given in patent US20170143674A1, “Use of Glutaryl Histamine for the Treatment of Respiratory Tract Diseases” (LTD "VALENTA-INTELLEKT", priority 2011, published 2017).
“Also recorded” adds a separate entry of the source. Marks after values point to notes of the source that are not given here.

Legend:
[1] = test system: LPS-induced tonsillitis; experiment: LPS-induced tonsillitis model (E. coli LPS into cervical lymph node); format: in vivo; details: for Area of germinal centers of lymphoid follicles in affected lymph nodes / TP (blood total protein) / Weight difference between affected and intact lymph nodes: M ± m
Procedure: This example is aimed at evaluating the activity of glutaryl histamine on experimental model of tonsillitis. LPS-induced tonsillitis is one of the most adequate models for the study of the pathogenesis, pathomorphological changes and action of pharmacological medicaments on the course of this disease.
Tonsillitis was induced under anesthesia by administration of a solution of E. coli lipopolysaccharide (LPS) (Sigma) in normal physiological solution in a dose of 20 μg/kg, by 10 μl to the right upper lymph node (Inn. Cervicales superficiales). After administration, the lymph nodes were put under superficial neck muscles and then the skin was stitched. The wound was treated with streptocide. The animal was placed into a post-operation cage.
The tested medicament was administered once daily in a given dose strictly at the stated time for three days before the induction of tonsillitis and 10 days after. Normal saline solution was used as placebo.
Immediately after euthanasia, the animals were subjected to necropsy, the affected and intact lymph nodes were removed and weighed.
The lymph nodes derived from the half of animals from each group were being frozen after removal in a refrigerating chamber at −25° C. for 72 hours. Then the lymph nodes were lyophilized.
In a half of animals from each group (7), the affected lymph nodes were subjected to histological analysis. After euthanasia, intact and affected lymph nodes were removed from each animal. […] Sections with a thickness of 4 to 6 μm were prepared from the paraffin blocks, stained with hematoxylin and eosin to reveal typical pathological processes and study required parameters using light-optical microscope Leica DM LS (magnification 200× and 400×).
Weights of intact and affected lymph nodes were compared and the nodes also were lyophilized to evaluate an effect of the medicaments on the swelling degree and adequacy of the model of tonsillitis.
The protein-synthetic function of the liver and a systemic effect of the medicaments on organism were evaluated in total protein (TP) analysis.

[2] = test system: lacunar tonsillitis; experiment: open randomized comparative trial in lacunar tonsillitis; format: in vivo, human; details: 90 mg per day for 5 days with standard therapy
Procedure: The effectiveness of glutaryl histamine for the treatment of lacunar tonsillitis was studied in an open randomized and comparative trial.
The trial included 60 patients which were under medical supervision. When admitted to hospital, patients were randomized into two groups by a random sampling technique. The patients of the first group (30 subjects) received glutaryl histamine in an amount of 90 mg (1 pill) per day for 5 days (450 mg course dose) and standard therapy comprising antibacterial medicaments (penicillin 1 g I.M. 4 times a day or cefasoline 1 g I.M. 3 times a day for 7 days) and nosotropic agents. The patients of the second group (30 subjects) received only standard therapy.
Laboratory analysis included: general blood test, determination of C-reactive protein, and microbiological analysis of tonsil smears. Laboratory data were analyzed on day 6 of the treatment. […]
Statistical treatment of the obtained results. Values of quantitative variables were expressed as M±SE, wherein M is a mean value, and SE is a standard error of the mean. […]

[3] = test system: Staphylococcus aureus (mouse-adapted strain 10); experiment: animal or person; format: in vivo, mice; details: for Mortality rate (%) / Survival rate (%): tenth day
Procedure: The tested medicament was glutaryl histamine in doses of 15, 30 and 45 mg/kg. Solutions of the tested medicament for oral administration were prepared ex tempore. Levofloxacin (in oral administration) was used as a therapeutic preparation since this substance was the most experimentally studied antibiotic approved in clinical practice many years ago.
Staphylococcus aureus (mouse-adaptedstrain 10) was used as an infectious agent. Mice were infected intravenously.
Firstly, there was determined a lethal dose (LD100) of staphylococcus to be intravenously administered to this line of mice having a certain weight. Fatal cases among mice were registered every day for ten days. The lethal dose was 3×10^8 CFU/mouse. […] For this purpose, mice were housed into cages (10 animals per cage) and infected with a lethal dose of staphylococcus. One hour after each mouse was administered orally levofloxacin in doses of 1, 2, 4, 6, 8, 10, and 12 mg/kg. A group of mice infected with a lethal dose of staphylococcus without the treatment was considered as a control group. Fatal cases among mice were registered every day for ten days.
The next step of the experiment was to study an effect of combined administration of glutaryl histamine and levofloxacin on a model of staphylococcal sepsis in mice.
In the experiment, mice were housed in following groups (10 animals per cage):
Glutaryl histamine was administered orally in the corresponding doses to the mice of groups 3, 4, 5, 6, 7, and 8 for 5 days. Five day after, all groups of mice were intravenously administered with 0.2 ml of Staphylococcus aureus in the lethal dose. […] After infection and administration of levofloxacin, glutaryl histamine was administered to mice of groups 3-8 for additional 5 days. During the experiment, the animals were observed every day, and fatal cases were registered (see Table 13).

O=C(O)CCCC(=O)NCCc1c[nH]cn1 [glutaryl histamine]
Mortality rate (%) ([1]; Glutaryl histamine 9 mg/kg): 0%
The number of died animals/initial number of animals in a group ([1]; Glutaryl histamine 9 mg/kg): 0/14
Area of germinal centers of lymphoid follicles in affected lymph nodes ([1]; Glutaryl histamine 9 mg/kg): 0.067 ± 0.006* mm^2
TP (blood total protein) ([1]; Glutaryl histamine 9 mg/kg): 67.2 ± 1.1 g/L
Weight difference between affected and intact lymph nodes ([1]; Glutaryl histamine 9 mg/kg): 13.0 ± 1.3 mg
Mortality rate (%) ([1]; Glutaryl histamine 27 mg/kg): 0%
The number of died animals/initial number of animals in a group ([1]; Glutaryl histamine 27 mg/kg): 0/14
Area of germinal centers of lymphoid follicles in affected lymph nodes ([1]; Glutaryl histamine 27 mg/kg): 0.048 ± 0.003** mm^2
TP (blood total protein) ([1]; Glutaryl histamine 27 mg/kg): 65.0 ± 0.6* ** g/l
Weight difference between affected and intact lymph nodes ([1]; Glutaryl histamine 27 mg/kg): 8.8 ± 1.1* ** mg
Area of germinal centers of lymphoid follicles in affected lymph nodes ([1]; Glutaryl histamine 45 mg/kg): 0.066 ± 0.007* mm^2
TP (blood total protein) ([1]; Glutaryl histamine 45 mg/kg): 65.1 ± 0.8* ** g/l
tolerability / undesirable symptoms [2]: well tolerated; also recorded: none of the cases had undesirable symptoms
died/survived animals ([3]; day 1, glutaryl histamine 15 mg/kg): 0/10
died/survived animals ([3]; day 1, glutaryl histamine 30 mg/kg): 0/10
died/survived animals ([3]; day 1, glutaryl histamine 45 mg/kg): 0/10
died/survived animals ([3]; day 2, glutaryl histamine 15 mg/kg): 0/10
died/survived animals ([3]; day 2, glutaryl histamine 30 mg/kg): 0/10
died/survived animals ([3]; day 2, glutaryl histamine 45 mg/kg): 0/10
died/survived animals ([3]; day 3, glutaryl histamine 15 mg/kg): 0/10
died/survived animals ([3]; day 3, glutaryl histamine 30 mg/kg): 0/10
died/survived animals ([3]; day 3, glutaryl histamine 45 mg/kg): 1/9
died/survived animals ([3]; day 4, glutaryl histamine 15 mg/kg): 1/9
died/survived animals ([3]; day 4, glutaryl histamine 30 mg/kg): 1/9
died/survived animals ([3]; day 4, glutaryl histamine 45 mg/kg): 2/8
died/survived animals ([3]; day 5, glutaryl histamine 15 mg/kg): 2/8
died/survived animals ([3]; day 5, glutaryl histamine 30 mg/kg): 3/7
died/survived animals ([3]; day 5, glutaryl histamine 45 mg/kg): 4/6
died/survived animals ([3]; day 6, glutaryl histamine 15 mg/kg): 3/7
died/survived animals ([3]; day 6, glutaryl histamine 30 mg/kg): 4/6
died/survived animals ([3]; day 6, glutaryl histamine 45 mg/kg): 5/5
died/survived animals ([3]; day 7, glutaryl histamine 15 mg/kg): 4/6
died/survived animals ([3]; day 7, glutaryl histamine 30 mg/kg): 6/4
died/survived animals ([3]; day 7, glutaryl histamine 45 mg/kg): 7/3
died/survived animals ([3]; day 8, glutaryl histamine 15 mg/kg): 6/4
died/survived animals ([3]; day 8, glutaryl histamine 30 mg/kg): 7/3
died/survived animals ([3]; day 8, glutaryl histamine 45 mg/kg): 8/2
died/survived animals ([3]; day 9, glutaryl histamine 15 mg/kg): 7/3
died/survived animals ([3]; day 9, glutaryl histamine 30 mg/kg): 7/3
died/survived animals ([3]; day 9, glutaryl histamine 45 mg/kg): 8/2
died/survived animals ([3]; day 10, glutaryl histamine 15 mg/kg): 8/2
died/survived animals ([3]; day 10, glutaryl histamine 30 mg/kg): 7/3
died/survived animals ([3]; day 10, glutaryl histamine 45 mg/kg): 8/2
Mortality rate (%) ([3]; glutaryl histamine 15 mg/kg): 80%
Survival rate (%) ([3]; glutaryl histamine 15 mg/kg): 20%
Mortality rate (%) ([3]; glutaryl histamine 30 mg/kg): 70%
Survival rate (%) ([3]; glutaryl histamine 30 mg/kg): 30%
Mortality rate (%) ([3]; glutaryl histamine 45 mg/kg): 80%
Survival rate (%) ([3]; glutaryl histamine 45 mg/kg): 20%
